Test results reported in paper PMC6434189, “Peperomin E and its orally bioavailable analog induce oxidative stress-mediated apoptosis of acute myeloid leukemia progenitor cells by targeting thioredoxin reductase” (Redox Biology, 2019).

What was measured:
recombinant human TrxR1 = biological target: T1, recombinant human TrxR1 (Homo sapiens, UniProt Q16881); assay: NADPH oxidative activity assay; assay type: biochemical; details: 5 μM, TrxR1 0.2 μM
T1 construct: purchased Abcam ab204206
T1 sequence (Q16881 1-499 isoform Q16881-5): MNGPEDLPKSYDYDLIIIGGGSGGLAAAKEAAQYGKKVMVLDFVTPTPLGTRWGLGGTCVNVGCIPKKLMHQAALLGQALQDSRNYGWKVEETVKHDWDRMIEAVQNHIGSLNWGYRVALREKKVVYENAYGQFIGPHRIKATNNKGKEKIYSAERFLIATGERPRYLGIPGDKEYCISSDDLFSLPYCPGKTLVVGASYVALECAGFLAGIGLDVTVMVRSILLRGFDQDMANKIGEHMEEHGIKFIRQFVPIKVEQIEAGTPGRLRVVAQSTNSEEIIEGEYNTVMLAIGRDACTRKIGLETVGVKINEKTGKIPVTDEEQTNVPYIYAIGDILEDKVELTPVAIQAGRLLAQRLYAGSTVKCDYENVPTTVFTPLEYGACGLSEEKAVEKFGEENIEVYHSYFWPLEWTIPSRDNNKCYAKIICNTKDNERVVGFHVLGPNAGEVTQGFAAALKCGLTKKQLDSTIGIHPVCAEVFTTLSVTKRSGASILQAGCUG
Description: The NADPH oxidative activity by TrxR1 in the presence of PepE was performed according to the previous reports. Briefly, the recombinant human TrxR1 protein (0.2 μM) was incubated with either 5 μM of PepE or 5 μM of DNCB at room temperature in assay buffer (50 mM Tris-HCl, 1 mM EDTA, pH = 7.5), same amount of DMSO was used as negative control. NADPH was then added (final concentration was set at 200 μM) and the absorbance was monitored at 340 nm for 30 min using the SpectraMax i3x microplate reader (Molecular Devices), the molar extinction coefficient was set as 6200 M^−1cm^−1. The linear decrease in NADPH absorbance was used for calculating NADPH consumption rate and expressed as NADPH μM^−1min^−1enzyme μM^−1.

GSS = biological target: T2, GSS (Homo sapiens, UniProt P48637); assay: BLI binding assay, GSS
T2 construct: purchased Abcam
T2 sequence (P48637 1-474): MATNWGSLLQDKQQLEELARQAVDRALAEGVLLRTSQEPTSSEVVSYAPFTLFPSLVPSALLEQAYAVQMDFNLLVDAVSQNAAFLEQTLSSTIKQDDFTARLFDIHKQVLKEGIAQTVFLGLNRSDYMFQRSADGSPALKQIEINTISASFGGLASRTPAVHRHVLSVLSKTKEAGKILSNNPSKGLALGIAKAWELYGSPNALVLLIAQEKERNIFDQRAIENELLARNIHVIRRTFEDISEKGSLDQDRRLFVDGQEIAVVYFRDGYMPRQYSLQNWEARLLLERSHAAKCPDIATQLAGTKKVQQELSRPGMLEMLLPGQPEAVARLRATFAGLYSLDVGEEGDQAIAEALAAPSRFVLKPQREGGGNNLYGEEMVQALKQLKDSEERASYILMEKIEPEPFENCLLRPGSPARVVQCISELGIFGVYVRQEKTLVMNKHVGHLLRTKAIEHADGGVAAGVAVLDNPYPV
Description: The binding kinetics of PepE or PepA to purified recombinant proteins were determined using BLI on an Octet RED 96 system (ForteBio, Shanghai, China) following the manufacturer's protocol. All interaction analyses were performed at 25 °C in PBS with 0.2% DMSO. Purified recombinant proteins (0.9 μM, the TrxR1 full length and TrxR1 protein fragment were pre-reduced by 400 μM of NADPH before test) were pre-labeled with biotin using […] (Abcam) following the manufacturer's instruction. Loading of the Dip and Read Super Streptavidin (SSA) Biosensors (ForteBio) were conducted by exposing biotinylated proteins to biosensor tips for 2 h. The 96-well microplates used in the Octet were filled with 200 μL sample or buffer per well and agitated at 1000 rpm. The loaded biosensors were washed in buffer for 600 s and transferred to wells containing PepE at concentrations of 0.625, 1.25, 2.5, 5, and 10 μM or PepA at concentrations of 1.25, 2.5, 5, 10 and 20 μM, respectively, in the buffer. […] Reference measurements were conducted using the buffer instead of PepE (or PepA). A parallel set of SA unloaded biosensors was prepared to act as a control. The sample-sensorgrams were corrected by subtracting the double reference curve. Kinetic parameters (Kon and Kdis) and affinity (KD) were determined from a global fit to a 1:1 binding model of the data between proteins and PepE using Octet software (ForteBio).

[1] = parameters: method as in earlier work; details: formulated with phosphate acid; cited from earlier work
[2] = system: NBM CD34+ (including hBMSCs) cells; assay: Release study of DMAPE in vitro, NBM CD34+ cells (UFLC-MS/MS); assay type: in vitro ADME, human; details: 10 μM DMAPE, 24 h
Description: (§1) 1 × 10^5 cells (including sorted CD34^+ KG-1a cells and NBM cells) were seeded at 48-well plates (Corning, New York, USA) in the IMDM-based serum-free media for 1 h. The cells were then incubated with 10 μM DMAPE at 37 °C in the 5% CO2 incubator for 0, 12 or 24 h. The culture supernatant was collected by centrifugation at 3000 rpm for 10 min and evaporated to dryness at 30 °C using a CentriVap vacuum centrifugal concentrator. The resulting residue was reconstituted in 100 μL methanol, vortexed and centrifuged at 12000 rpm for 10 min. A 2 μL aliquot of the supernatant was injected for UFLC-MS/MS analysis (UFLC-MS/MS analysis method same as the pharmacokinetic study of DMAPE, see Additional method in Supplementary Materials).

AML CD34+ cells = assay: Release study of DMAPE in vitro, AML CD34+ cells (UFLC-MS/MS); assay type: in vitro ADME, human; details: 10 μM DMAPE, 24 h
Description: as §1

Row | consumption of NADPH by TrxR1 relative to the control (recombinant human TrxR1) [fold] | Kd (GSS) [µM] | kon (GSS) [M⁻¹ s⁻¹] | koff (GSS; read-out: Kdis) [s⁻¹] | DMAPE remained in the culture media [2] | DMAPE in culture with AML CD34+ cells (AML CD34+ cells) | Compound | increased solubility in water compared to PepE [1]
1 | ~7 | 272 | 2740 | 0.745 | – | – | C=C1C(=O)OC[C@H]1C(c1cc(OC)c2c(c1)OCO2)c1cc(OC)c2c(c1)OCO2 [PepE, Peperomin E] | –
2 | – | – | – | – | about half | could not be detected | COc1cc(C(c2cc(OC)c3c(c2)OCO3)[C@@H]2COC(=O)[C@H]2CN(C)CCO)cc2c1OCO2 [DMAPE, (2S,3S)-6-Methyl (hydroxyethyl) amino-2,6-dihydropeperomin E] | more than 1000 fold
